# Measured values: ChEMBL document CHEMBL1132060, “Octa- and nonaprenylhydroquinone sulfates, inhibitors of alpha1,3-fucosyltransferase VII, from an Australian marine sponge Sarcotragus sp” (Bioorg Med Chem Lett, 1999)
# Assay: Inhibitory activity against fuc-TVII
row,Structure (SMILES),IC50
1,CC(C)=CCC/C(C)=C/CC/C(C)=C/CC/C(C)=C/CC/C(C)=C/CC/C(C)=C/CC/C(C)=C/CC/C(C)=C/CC/C(C)=C/Cc1cc(O)ccc1OS(=O)(=O)[O-].[Na+],2.4 µg/mL
2,CC(C)=CCC/C(C)=C/CC/C(C)=C/CC/C(C)=C/CC/C(C)=C/CC/C(C)=C/CC/C(C)=C/CC/C(C)=C/Cc1cc(O)ccc1OS(=O)(=O)[O-].[Na+],3.9 µg/mL
